These results are taken from PMC8147764, “Heterologous Expression, Engineering and Characterization of a Novel Laccase of Agrocybe pediades with Promising Properties as Biocatalyst” (Journal of Fungi, 2021).

This assay deals with T1, ApL (A. pediades laccase) (Agrocybe pediades, UniProt A0A8H4QKE8, V194E/N433D).
T1 construct: gene D9613_012768
The settings on record: read-out: IC50 (mM or v/v % ^a); DM variant; ABTS about 3 mM, citrate-phosphate pH 3; fluoride, TNC site.

With `F` [NaF], the IC50 amounted to 0.051 ± 0.002 mM.
